From patent US20070218002A1, “Method for Detecting Alzheimer's Disease and other Forms of Dementia, and Measuring Their Progression” (priority 2004, published 2007)
“Also recorded” adds a separate entry of the source.

Columns and labels:
[1] = system: Tau aggregates and amyloid plaques; test: In vitro [F-18]FDDNP digital autoradiography on brain tissue slices; assay type: binding, human
Procedure: Two AD and three control brain samples were obtained at the time of autopsy from the Alzheimer's Disease Research Center at USC Keck School of Medicine, Los Angeles. Glass mounted whole-hemisphere brain cryosections (100 μm thick), cut at the level of hippocampus, were incubated with 1.85 MBq/mL of […] in 50 mM Tris buffer/saline (pH=7.4) for 2 hours at room temperature. The samples were exposed to β^+-sensitive phosphor storage plates for 60 min, scanned in with BAS 5000 Phosphorimager, and analyzed with MacBAS software provided with the instrument (Fuji Film Medical Systems USA, Stamford, Conn.). […] All values were normalized to the inner layer, known to be well preserved in AD (16). [F-18]FDDNP autoradiography was performed as described elsewhere (17). In brief, the de-fattened tissue slices were incubated with 0.37 MBq/mL of [F-18]FDDNP in 1% ethanol in normal saline for 25 min at room temperature followed by differentiation in 60% 2-methyl-2-butanol (3 min). The sections were exposed to β^+-sensitive phosphor storage plates for 60 min and scanned in with BAS 5000 Phosphorimager.

[2] = system: NFTs and SPs (neurofibrillary tangles, β-amyloid senile plaques); test: [F-18]FDDNP PET, Logan plot relative distribution volume; assay type: in vivo, human; details: cerebellum reference
Procedure: All scans were performed with ECAT HR or ECAT HR+ scanners (Siemens-CTI, Knoxville, Tenn.). The subjects were in the supine position with the imaging plane parallel to the orbito-meatal line and with their eyes open and ears unoccluded. A 20 min transmission scan was performed to correct PET data for radiation attenuation. 320-550 MBq of a PET tracer was injected as a bolus injection via the in-dwelling venous catheter, and the consecutive dynamic head PET scans were performed for 1 hour with [F-18]FDG or for 2 hours with [F-18]MPPF or with [F-18]FDDNP.
All PET scans were decay corrected and reconstructed using filtered-back projection (Hann filter, 5 mm FWHM) with scatter and attenuation correction. The resulting images contained either 47 contiguous slices with 3.4 mm plane-to-pane separation (EXACT HR) or 63 contiguous slices with the plane-to-plane separation of 2.42 mm (EXACT HR+).
Quantitation of [F-18]FDDNP data was performed using the Logan plot graphical analysis with the cerebellum as the reference region. Distribution volume ratio (DVR) parametric images were created as described elsewhere. ROIs were drawn bilaterally on the early frames of the dynamic PET scan (3 min to 6 min post-injection) using MRI as a guide bilaterally on the transaxial images on frontal lobe, on parietal lobe, on medial temporal lobe, and on lateral temporal lobe. In addition, a single ROI was placed on posterior cingulated gyrus. DV values for cortical regions were extracted from the [F-18]FDDNP DV parametric image using the above-described ROI set. DV values were determined for all 9 cortical ROIs and for cerebellum. Relative global neocortical [F-18]FDDNP distribution volume (global DVR) was determined by dividing the DV average value of the eight neocortical ROIs with the DV average value of cerebellar ROIs. In similar fashion, regional relative distribution volumes (DVRs) were determined for frontal, parietal, lateral temporal and medial temporal areas by dividing the DV average of both ROIs from the corresponding region with the DV average value of cerebellar ROIs. The posterior cingulated gyrus DVR was determined by dividing the cingulated gyrus DV value with the DV average value of cerebellar ROIs.

## CC(=C(C#N)C#N)c1ccc2cc(N(C)CC[18F])ccc2c1 [[F-18]FDDNP, 2-(1-{6-[(2-[F-18]fluoroethyl)(methyl)amino]-2-naphthyl}ethylidene)malononitrile]
[1]; AD tissue
  [F-18]FDDNP binding to gray matter, autoradiography: increased in the gray matter of temporal and limbic lobes; also recorded: strong [F-18]FDDNP binding to the gray matter in the temporal lobe and in cingulated gyrus
[1]; normal control brain samples
  [F-18]FDDNP binding to gray matter, autoradiography: uniformly low; also recorded: none of the gray matter areas from the normal control brain samples showed [F-18]FDDNP binding above background levels in white matter
[2]; AD group
  FDDNP mean DVR ± 1 SD, Frontal Lobe: 1.11 ± 0.03
  FDDNP mean DVR ± 1 SD, Global: 1.17±0.01
  FDDNP mean DVR ± 1 SD, Lateral Temporal Lobe: 1.17 ± 0.03
  FDDNP mean DVR ± 1 SD, Medial Temporal Lobe: 1.23 ± 0.04
  FDDNP mean DVR ± 1 SD, Parietal Lobe: 1.17 ± 0.03
  FDDNP mean DVR ± 1 SD, Posterior Cingulate Gyrus: 1.18 ± 0.06
[2]; AD group, listed as FDDNP
  FDDNP mean DVR ± 1 SD, Global: 1.17 ± 0.01
[2]; CTRL group
  FDDNP mean DVR ± 1 SD, Frontal Lobe: 1.05 ± 0.01
  FDDNP mean DVR ± 1 SD, Global: 1.08±0.03
  FDDNP mean DVR ± 1 SD, Lateral Temporal Lobe: 1.07 ± 0.03
  FDDNP mean DVR ± 1 SD, Medial Temporal Lobe: 1.12 ± 0.05
  FDDNP mean DVR ± 1 SD, Parietal Lobe: 1.07 ± 0.03
  FDDNP mean DVR ± 1 SD, Posterior Cingulate Gyrus: 1.07 ± 0.05
[2]; CTRL group, listed as FDDNP
  FDDNP mean DVR ± 1 SD, Global: 1.08 ± 0.03
[2]; MCI group
  FDDNP mean DVR ± 1 SD, Frontal Lobe: 1.08 ± 0.01
  FDDNP mean DVR ± 1 SD, Global: 1.12 ± 0.01
  FDDNP mean DVR ± 1 SD, Lateral Temporal Lobe: 1.13 ± 0.03
  FDDNP mean DVR ± 1 SD, Medial Temporal Lobe: 1.19 ± 0.02
  FDDNP mean DVR ± 1 SD, Parietal Lobe: 1.09 ± 0.03
  FDDNP mean DVR ± 1 SD, Posterior Cingulate Gyrus: 1.12 ± 0.03
